How the values were obtained:
VEGFR2 = target: T1, VEGFR2 (Homo sapiens, UniProt P35968); assay: Cell VEGFR2 receptor-binding assay, displacement/competition; conditions: read-out: 50% inhibitory concentration (IC50)
T1 construct: evaluated by saturation and displacement assays using U87 cells; endogenous in cells; host or cells: U87 (U87MG) human glioblastoma cells
Protocol: Cells were seeded in 12 well plates at concentration of 5×10^5 cells per well the day before the experiment. […] The cells were then washed with cold PBS and trypsinized. The cell-associated radioactivity was measured using γ-counter (Perkin-Elmer, CT) and the Kd values were calculated by fitting the data by nonlinear regression using GraphPad Prism (GraphPad Software, CA). […] The experiment procedures are similar with those used for the saturation study described above. All experiments were carried out with triplicate samples.

VEGFR = target: T2, VEGFR (Homo sapiens, UniProt P35968); assay: VEGFR cell receptor-binding assay, competition against 64Cu-DOTA-ZD-G2; conditions: U-87 MG cells, 1 uCi 64Cu-DOTA-ZD-G2 per well, 4° C., 1 hour
T2 construct: endogenous in cells; host or cells: U-87 MG human glioblastoma cells
T2 sequence (P35968 20-1356): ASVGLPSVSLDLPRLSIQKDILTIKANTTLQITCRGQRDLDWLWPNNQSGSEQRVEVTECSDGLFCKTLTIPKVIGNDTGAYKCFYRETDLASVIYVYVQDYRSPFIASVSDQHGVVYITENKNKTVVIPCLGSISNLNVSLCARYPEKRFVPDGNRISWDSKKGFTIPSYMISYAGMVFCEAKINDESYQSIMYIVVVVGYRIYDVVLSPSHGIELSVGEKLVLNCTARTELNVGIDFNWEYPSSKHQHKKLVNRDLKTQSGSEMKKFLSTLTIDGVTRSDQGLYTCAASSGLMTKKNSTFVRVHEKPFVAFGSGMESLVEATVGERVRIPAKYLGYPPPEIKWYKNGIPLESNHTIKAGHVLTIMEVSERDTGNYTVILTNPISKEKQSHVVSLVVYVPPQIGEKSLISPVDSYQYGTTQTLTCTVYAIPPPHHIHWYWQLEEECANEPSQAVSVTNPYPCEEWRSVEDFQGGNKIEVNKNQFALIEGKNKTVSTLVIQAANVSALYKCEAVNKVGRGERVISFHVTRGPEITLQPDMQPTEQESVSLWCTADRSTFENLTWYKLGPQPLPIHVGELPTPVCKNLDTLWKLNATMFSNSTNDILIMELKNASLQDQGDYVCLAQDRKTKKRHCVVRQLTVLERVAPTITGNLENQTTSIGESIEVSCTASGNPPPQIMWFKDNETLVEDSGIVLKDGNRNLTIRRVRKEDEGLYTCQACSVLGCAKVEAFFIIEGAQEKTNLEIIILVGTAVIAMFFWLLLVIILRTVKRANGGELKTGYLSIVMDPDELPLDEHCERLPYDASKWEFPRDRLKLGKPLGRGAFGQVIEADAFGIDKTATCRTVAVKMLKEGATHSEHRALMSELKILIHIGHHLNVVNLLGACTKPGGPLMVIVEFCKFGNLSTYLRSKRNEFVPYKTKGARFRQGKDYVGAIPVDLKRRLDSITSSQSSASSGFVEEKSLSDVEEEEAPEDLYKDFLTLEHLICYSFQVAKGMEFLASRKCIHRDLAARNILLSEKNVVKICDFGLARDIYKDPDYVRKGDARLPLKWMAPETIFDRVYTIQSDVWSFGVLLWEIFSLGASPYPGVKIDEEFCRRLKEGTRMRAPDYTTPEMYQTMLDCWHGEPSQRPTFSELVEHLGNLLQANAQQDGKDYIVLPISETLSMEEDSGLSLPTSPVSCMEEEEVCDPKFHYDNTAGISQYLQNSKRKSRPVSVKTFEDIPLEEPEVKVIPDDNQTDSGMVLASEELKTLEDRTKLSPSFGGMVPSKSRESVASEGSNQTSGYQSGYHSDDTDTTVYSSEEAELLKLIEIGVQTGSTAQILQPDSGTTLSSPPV
Protocol: Cells were seeded in 12-well plates at a density about 5×10^5 cells per well the day before the experiment. […] The HPLC purified radio-tracer was re-dissolved in FBS-free DMEM medium and diluted to 1 uCi/100 uL. […] After incubation at 4° C. for 1 hour, the supernatant with free radio tracer was removed carefully and the cells were then washed with cold PBS for three times and trypsinized. The cells were collected and cell pellet associated radioactivity was measured and the binding affinity values (IC50) were calculated by nonlinear regression using GraphPad Prism (GraphPad Software, CA). All experiments were carried out in triplicate.

[1] = tested on: U87-MG human glioblastoma xenograft; assay: Ex vivo tumor accumulation and biodistribution fluorescence imaging; type: in vivo, nu/nu female mice
Protocol: The subcutaneous dorsa of five nu/nu female mice (6 weeks old; 20 g) were inoculated bilaterally with 1×10^7 U87-MG human glioblastoma cells overexpressing the VEGF receptor. Once the tumor diameter was approximately 7-8 mm at 21 days post implant, the mice were divided into three groups for the following injections: (a) free FAM (n=1), (b) FAM-labeled ZD6474-monomer (50 μM; n=2), and (c) FAM-labeled ZD6474-dimer (50 μM, n=2). The animals were manually restrained during intravenous tail injection. All tail vein injections were carried out with a 31 gauge needle placed in a lateral tail vein to inject 100 μL of solution. Twenty-four hours post injection, fluorescence images were acquired using a one second exposure time. The tumors and major organs were dissected and imaged again. […] In vivo fluorescence imaging was performed using the Xenogen IVIS 200 imaging system. To better observe the signal without losses and background due to intervening tissue, fluorescence images were collected ex vivo. Raw counts for each organ were measured using the Xenogen software by drawing oval regions of interest (ROI) around the organ of interest. […] An estimate of the percentage of injected dose accumulated in the tumors was established by comparing measured counts/volume of tissue with the measured counts/volume of a known concentration of the same compound in water at the same exposure. […]

[2] = tested on: MDA-MB-231 cells and HUVEC; assay: In vitro cellular uptake of FAM-conjugated compounds; type: cell-based, human; conditions: 3 h, 100 nM dose
Protocol: Each of the FAM-conjugated compounds was incubated with MDA-MB-231 cells seeded 24 h earlier in a 96 well plate with 1% serum medium. Serial dilutions of the compounds were incubated for 3 h. The treated medium was then exchanged for fresh serum free medium. The remaining compound was then quantified from images taken using a Xenogen IVIS-200 (PerkinElmer, Inc. San Jose, Calif.) fluorescent imaging system. The same was done with HUVEC.

VEGF receptor on HUVECs = assay: Blocking assay of FAM-conjugated compounds; type: cell-based, human; conditions: HUVEC
Protocol: Specific binding of ZD6474-monomer and dimer were tested with blocking studies. Unlabeled ZD6474-monomer and ZD6474-dimer were mixed with the corresponding FAM-conjugated compounds simultaneously for 3 h. Plates were then imaged using the Xenogen IVIS-200 system. Similarly treated cells were fixed in 4% paraformaldehyde and imaged under fluorescent microscopy after staining the nuclei with DAPI.

[3] = tested on: MDA-MB-231, HCT-116, U-87-MG; assay: In vitro cell viability (MTT), cancer cell lines; type: cell-based, human
Protocol: (§1) MDA-MB-231 and U-87-MG cell lines were cultured in DMEM medium (Gibco, Grand Island, N.Y.) containing 10% fetal bovine serum (FBS) and 1% penicillin streptomycin at 37° C. in a humidified atmosphere of 5% CO2 in air. HCT 116 (human, colorectal carcinoma cell line) was grown in McCoy's 5a medium modified with 10% FBS. HUVECs (Human Umbilical Vein Endothelial cells) were grown in EGM medium (Lonza), supplemented with 20% FBS, 100 U/mL penicillin, 100 μg/mL streptomycin at 37° C. under a humidified atmosphere of 5% CO2 and 95% O2 with same condition as above. For the cell viability assay, the cells were then seeded into 96-well flat-bottomed tissue-culture plates at 1×10^4 cells/well and incubated for 24 or 72 h in humidified atmosphere of 5% (v/v) CO2 at 37° C. in the presence of each compound. For HUVECs, the flat-bottomed 96-well plate (Corning, N.Y., USA) was coated 1 h at 37° C. with gelatin (0.3% in PBS, pH 7.4) and then washed with PBS. The cells were then treated with ZD6474 monomer and its dimer compounds in the range from 5 nM to 100 μM concentration mixed with 1% FBS added culture medium (HUVECs was 2% FBS added). Following 24 and 72 h of incubation under 5% CO2 at 37° C., the cells were washed with PBS and cell viability was assessed by MTT colorimetric assay. The absorbance of individual wells was measured by using an automated microplate reader (570 nm; VERSAmax, Molecular Devices Corp., Sunnyvale, Calif.). The data are expressed as the percentage of viable cells compared to the survival of a control group and were presented as mean±s.e. (n=6).

HUVECs [4] = assay: In vitro cell viability (MTT), HUVECs; type: cell-based, human
Protocol: as §1, with “The cells were then treated with ZD6474 monomer and its dimer compounds in the range from 5 nM to 100 μM concentration mixed with 1% FBS added culture medium (HUVECs was 2% FBS added).” left out, “(n=6).” left out

HUVECs [5] = assay: In vitro tubular formation on Matrigel; type: cell-based, human; conditions: 10 μM, 6 h
Protocol: Growth factor reduced Matrigel (100 μL, BD Bioscience, San Jose, Calif., USA) was added to each well of a 96-well plate and allowed to polymerize for 30 min at 37° C. HUVECs were suspended in the medium at the density of 4×10^5 cells per milliliter, and 0.1 mL of the cell suspension was added to each well coated with Matrigel in the presence of ZD6474 monomer or ZD6474 dimer Cells were incubated at 37° C. for 6 h, and then photographed. The branch points were counted and averaged.

[6] = tested on: VEGF165-induced angiogenesis; assay: In vivo Matrigel plug assay; set-up: species or system nu/nu nude mice; conditions: VEGF165 500 ng/mL, compound 100 μM, 10 days
Protocol: The matrigel plug assays were performed injecting 637 μL of growth factor reduced liquid Matrigel-PBS mixture was into subcutaneously into the flanks of nu/nu nude mice at 4° C. Once inside the animals, the liquid Matrigel-PBS mixture solidifies. For comparison, Matrigel alone as well as Matrigel containing VEGF165 (Peprotech, Rocky Hill, N.J.) at a final concentration of 500 ng/mL to stimulate angiogenesis, and Matrigel with VEGF165 along with either ZD6474 monomer, ZD6474 dimer at a final concentration of 100 μM were used. All of the injection groups consisted of three mice. After 10 days, the mice were sacrificed and the Matrigel plugs were removed, fixed in 4% formalin and photographed.

[7] = In vitro cell viability (MTT), cancer cell lines; type: cell-based, human; conditions: human, MDA-MB-231, HCT-116 and U-87-MG cancer cells; 100 μM, cancer cell lines, 72 h; read-out: cells remaining viable
Protocol: as §1

T1 sequence (P35968 20-1356): as above

Q: For `COc1cc2c(Nc3ccc(Br)cc3F)ncnc2cc1OCC1CCN(C(=O)OCCN(CCOC(=O)NCCN)CCOC(=O)N2CCC(COc3cc4ncnc(Nc5ccc(Br)cc5F)c4cc3OC)CC2)CC1` [ZD-G2], which IC50 (VEGFR2) is on record?
A: The IC50 was 0.023 ± 0.002 nM.

Q: What about the IC50 (VEGFR) of the same molecule?
A: Its IC50 is 0.026 nM.

Q: For `COc1cc2c(Nc3ccc(Br)cc3F)ncnc2cc1OCC1CCN(C(=O)CCCCCC(NC(=O)c2ccc(C(=O)O)c(-c3c4ccc(=O)cc-4oc4cc(O)ccc34)c2)C(=O)N2CCC(COc3cc4ncnc(Nc5ccc(Br)cc5F)c4cc3OC)CC2)CC1` (stereo not shown) [dimer-FAM], which “total injected dose ending up in the tumors” value ([1]; 24 h after i.v. injection, estimate against known dye concentrations) is on record?
A: The value was “at least 6%”.

Q: And the “fluorescent intensity of tumors relative to tumors in other groups and organs” value ([1]; ex vivo, 24 h following i.v. injection)?
A: The value was “about 20 ×”.

Q: And the “uptake in HUVECs compared with MDA-MB-231 cells” value [2]?
A: The value was “overall higher uptake of dimer-FAM by HUVECs”.

Q: And the “blocking of fluorescence (cellular uptake images)” value (VEGF receptor on HUVECs; 100 μM ZD6474-dimer)?
A: Its value is “Complete blocking of fluorescence”.

Q: What about the “loss of FAM signal when mixed with unlabeled dimer” value (VEGF receptor on HUVECs; 100× unlabeled ZD6474-dimer, 3 h) of the same molecule?
A: The value was ~90%.

Q: With `COc1cc2c(Nc3ccc(Br)cc3F)ncnc2cc1OCC1CCN(C(=O)CCCCCC(N)C(=O)N2CCC(COc3cc4ncnc(Nc5ccc(Br)cc5F)c4cc3OC)CC2)CC1` (stereo not shown) [ZD6474-dimer] as the molecule, how does the “toxicity to the cancer cells” value ([3]; 5 nM to 50 μM) read?
A: Its value is “low toxicity”.

Q: What about the cells remaining viable ([3]; 100 μM, cancer cell lines, 72 h) of the same molecule?
A: The cells remaining viable was “around 50%”.

Q: And the “concentration at which cell viability begins to be affected” value (HUVECs [4])?
A: The value was 500 nM.

Q: And the “number of tube branches (control group 100%)” value (HUVECs [5])?
A: The value was 75±5.2%.

Q: And the “appearance of Matrigel plugs (blood vessel formation)” value [6]?
A: The value was “almost the same as the PBS treated negative control group”.

Q: With `COc1cc2c(Nc3ccc(Br)cc3F)ncnc2cc1OCC1CCN(C)CC1` [ZD-G1, vandetanib, reference compound] as the molecule, how does the viability at 72 h, 100 µM [7] read?
A: Its viability at 72 h, 100 µM is ~50%.

Q: What about the “concentration at which cell viability begins to be affected” value (HUVECs [4]) of the same molecule?
A: Its value is 500 nM.

Q: And the “number of tube branches (control group 100%)” value (HUVECs [5])?
A: Its value is 52.0±4.8%.

Q: For `COc1cc2c(Nc3ccc(Br)cc3F)ncnc2cc1OCC1CCN(C(=O)c2ccc(C(=O)O)c(-c3c4ccc(=O)cc-4oc4cc(O)ccc34)c2)CC1` [monomer-FAM], which “mean blocked signal relative to blocked dimer FAM” value (VEGF receptor on HUVECs; 100× unlabeled compound, 10 μM dose) is on record?
A: The value was “over 10 ×”.
